What all share (experiment): growth of human tumour cells (NCI), 48 h
Assay [1] deals with HOP-62 NSCLC.
Assay [2] relates to SW-620 colon.
The test system of assay [3] is HOP-92 NSCLC.
The subject of assay [4] is T-47D breast.
For assay [5], the system named is KM12 colon.
For assay [6], the system named is RXF 393 renal.
The test system of assay [7] is SF-295 CNS.
The subject of assay [8] is NCI/ADR-RES ovarian.
The subject of assay [9] is OVCAR-8 ovarian.
In assay [10] the test system is SR leukemia.
Assay [11] concerns RPMI-8226 leukemia.

TGI data for 29 compounds are collected here from PubChem BioAssay (NCI).

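Method: 48-hour compound exposure of cells in 96-well plates, five concentrations, linear interpolation of endpoints. TGI denotes the concentration required for complete inhibition of growth.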

For `O=C(/C=C/c1ccc(OCc2ccccc2)cc1)NCc1ccc(C(=O)NCCc2ccccc2)cc1`, the TGI in assay [1], in [2], in assay [3], in [4], in assay [5] and in [6] was over 100 µM each time. The TGI in assay [7], in assay [8] and in assay [9] was over 100 µM throughout.
Consider `CSc1c(C(C)=O)c(O)n(-c2ccc(C)cc2)c(=O)c1C#N`, for which the TGI in assay [2], in assay [4], in [10], in assay [5], in [6] and in assay [8] was over 100 µM in each case. In addition, the TGI in [11] and in [9] was over 100 µM each time.
Turning to `Cc1ccc(C)c2c1C1CCCCC3(OCCCO3)C21O` (stereo unspecified), the TGI in assay [1], in [2], in [5], in assay [6], in [7] and in assay [11] was over 100 µM each time. The compound also showed a TGI in assay [9] of over 100 µM.
Regarding `CNC(=O)OCc1cnc([N+](=O)[O-])n1C`, the TGI in [1], in assay [2], in assay [3], in [10], in assay [5] and in assay [6] was over 100 µM each time. Moreover, the TGI in assay [7], in assay [8], in assay [11] and in assay [9] was over 100 µM throughout.
For the compound `CN(C)C(=O)C(F)(F)C(c1ccccc1)C1C(=O)N(C)C(=O)N(C)C1=O` (stereo unspecified), the TGI in assay [1], in [2], in [3], in assay [4], in assay [5] and in assay [6] was over 100 µM throughout. Besides, the TGI in assay [7], in assay [8], in [11] and in [9] was over 100 µM in each case.
In the case of `ClC1=NSSC1(Cl)Cl`, the TGI in assay [1] is over 100 µM; in assay [2], 82.3 µM; in assay [10] it was 60.2 µM; in assay [5] it was over 100 µM; in [6], over 100 µM; in assay [7], over 100 µM. Besides, the TGI in [8] was over 100 µM; in assay [11] it was 56 µM; in assay [9] it was 87.2 µM.
Regarding `Cc1cccc2c(=O)c3c(O)cc(O)cc3n(C)c12`, the TGI in assay [1], in assay [2], in assay [3], in assay [10], in [5] and in [6] was over 100 µM throughout. In addition, the TGI in [7], in assay [8], in [11] and in assay [9] was over 100 µM each time.
On to `CNC(=S)N/N=C/C(C)=N/NC(=S)NC`, for which the TGI in [1], in assay [2], in [5], in [6], in assay [7] and in assay [11] was over 100 µM throughout.
As to `CC(=O)c1csc2c1C(=O)c1ccccc1C2=O`, the TGI stood at 4.36 µM in assay [1]; 5.4 µM in assay [2]; 89.1 µM in [3]; 50.8 µM in [4]; 3.68 µM in assay [5]; 26.7 µM in [6]. Moreover, the TGI in [7] was 3 µM; in [8] it was 16.6 µM; in [11], 89.9 µM; in [9] it was 7.11 µM.
With `COc1cc2c(c(OC)c1OC)C(=O)c1c(O)cc(C)c(OC)c1C2=O`, the TGI in assay [1], in assay [2], in [3], in assay [10], in assay [5] and in assay [7] was over 100 µM in each case. For the same compound, the TGI in assay [8], in [11] and in [9] was over 100 µM each time.
In the case of `COC(=O)c1ccccc1CC1Cc2c(C)ccc(C)c2C1=O` (stereo unspecified), the TGI is over 100 µM in assay [1]; over 100 µM in assay [2]; 54.4 µM in [3]; 87.2 µM in assay [4]; 76.1 µM in assay [5]; 51 µM in assay [6]. In addition, the TGI was over 100 µM in assay [7], 70.9 µM in assay [8] and over 100 µM in assay [9].
Regarding `C[N+](C)(CCNc1ccc(NCC[N+](C)(C)Cc2ccc([N+](=O)[O-])cc2)c2c1C(=O)c1c(O)ccc(O)c1C2=O)Cc1ccc([N+](=O)[O-])cc1`, the TGI in [1] was over 50 µM; in [2] it was over 50 µM; in assay [4], over 50 µM; in assay [5], 14.5 µM; in [6], over 50 µM; in [7], over 50 µM. Besides, the TGI in assay [8], in [11] and in assay [9] was over 50 µM in each case.
Consider `CCOC(=O)C(C)c1nc2cc(F)c(F)cc2[nH]c1=O` (stereo unspecified), for which the TGI in assay [1], in assay [2], in [3], in [4], in assay [5] and in assay [6] was over 100 µM throughout. Besides, the TGI in assay [7], in assay [8], in [11] and in assay [9] was over 100 µM in each case.
Regarding `COCN1C(=O)[C@@H]2CCCN2C(=O)c2ccc(N)cc21`, the TGI in [1], in assay [2], in [3], in assay [10], in assay [5] and in assay [6] was over 100 µM throughout. The TGI in [7], in assay [8], in [11] and in [9] was over 100 µM in each case.
For `CC(=O)N[C@@H](Cc1ccc(O)cn1)C(=O)NCc1ccc(Cl)cc1`, the TGI in assay [1], in assay [2], in assay [3], in assay [4], in [5] and in assay [6] was over 100 µM throughout. Also, the TGI in assay [7], in [8], in assay [11] and in assay [9] was over 100 µM each time.
In the case of `O=c1cc(NNc2cccc3ccccc23)[nH]c(=O)[nH]1`, the TGI in [1] is 30.9 µM; in assay [2], 40 µM; in [3], 31.7 µM; in assay [4] it was 29.6 µM; in assay [5] it was 29.9 µM; in [6], 31.9 µM. Besides, the TGI was 31.4 µM in assay [7], 40.9 µM in [8], 33.3 µM in [11] and 36.8 µM in [9].
As to `O/N=C\c1c2c(cc3c1CCC3)CCC2`, the TGI in [1], in assay [2], in assay [4], in assay [10], in [5] and in [7] was over 100 µM throughout. The TGI in assay [8], in assay [11] and in [9] was over 100 µM throughout.
Consider `C/C(=C\C(=O)Nc1ccc2n[nH]nc2c1)Nc1ccc2n[nH]nc2c1`, for which the TGI in assay [1], in assay [2], in assay [3], in assay [10], in [5] and in assay [6] was over 100 µM each time. The TGI in [7], in [11] and in assay [9] was over 100 µM each time.
Take `CN(C)C(=O)C(F)(F)C(c1ccccc1Br)C1C(=O)N(C)C(=O)N(C)C1=O` (stereo unspecified): the TGI in assay [1], in assay [2], in assay [3], in assay [4], in assay [5] and in [6] was over 100 µM each time. In addition, the TGI in assay [7], in assay [8], in [11] and in [9] was over 100 µM in each case.
On to `COC1OC2COC(=O)c3cc(O)c(O)c(O)c3-c3c(cc(O)c(O)c3O)C(=O)OC2C(O)C1O` (stereo unspecified), for which the TGI in assay [1] was over 100 µM; in assay [2], 57.9 µM; in assay [5] it was over 100 µM; in [6], over 100 µM; in assay [7], 37.8 µM; in [8], over 100 µM. Moreover, the TGI in assay [11] and in assay [9] was over 100 µM throughout.
`CC1=NN(c2nc(N)nc(CO)n2)C(C)(C)C1`: the TGI in assay [1], in assay [2], in assay [3], in assay [4], in [5] and in assay [6] was over 100 µM throughout. The TGI in [7], in assay [8], in [11] and in assay [9] was over 100 µM throughout.
On to `CCN(CC)c1c(C(C)(C)C)c(=O)n2ccsc2c1OC(C)=O`, for which the TGI was found to be 26.1 µM in assay [1]; 30.6 µM in assay [2]; 31.2 µM in assay [3]; 30.6 µM in assay [5]; 30.7 µM in assay [6]; 30.7 µM in [7]. The values for the TGI in assay [8], in assay [11] and in assay [9] were 28.4 µM, over 100 µM and 29.1 µM, respectively.
As to `Nc1nc(Cl)c(CO)c(NCC2(CO)CCC2)n1`, the TGI in [1], in assay [2], in [3], in [10], in assay [5] and in assay [6] was over 100 µM throughout. For the same compound, the TGI in assay [7], in assay [8], in assay [11] and in [9] was over 100 µM each time.
Take `C[C@]12CC[C@H]3[C@@H](CC=C4C[C@@H](O)CC[C@@]43C)[C@@H]1C/C(=C\c1cccnc1)[C@@H]2O`: the TGI is 29.4 µM in [1]; over 100 µM in assay [2]; 59.6 µM in [3]; over 100 µM in assay [10]; over 100 µM in [5]; 80.2 µM in assay [6]. In addition, the TGI in assay [7] was 17.2 µM; in assay [8], over 100 µM; in assay [11], over 100 µM; in [9], 36.3 µM.
Take `C=CCOCC1C2CCC3(OCCO3)C21` (stereo unspecified): the TGI in [1], in [2], in assay [3], in assay [10], in assay [5] and in [6] was over 100 µM throughout. Besides, the TGI in assay [7], in assay [8], in assay [11] and in assay [9] was over 100 µM each time.
For `Nc1nc(SCc2ccccc2Cl)c2ncn(C3OC(CO)C(O)C3O)c2n1` (stereo unspecified), the TGI in assay [1], in assay [2], in [3], in assay [10], in [5] and in assay [6] was over 100 µM in each case. Also, the TGI in assay [7], in assay [11] and in assay [9] was over 100 µM in each case.
`Nc1nc(Cl)c2ncn(CCCC(c3ccccc3)P(=O)(O)O)c2n1` (stereo unspecified): the TGI in assay [1], in [2], in assay [3], in assay [10], in [5] and in assay [7] was over 100 µM each time. Further, the TGI in assay [11] and in assay [9] was over 100 µM throughout.
Regarding `CSc1cc(Cl)c(C)cc1S(=O)(=O)NC(=O)NNc1ccc(C)cc1`, the TGI in [1], in [2], in [4], in assay [10], in [5] and in assay [6] was over 100 µM throughout. Also, the TGI in assay [7], in assay [8] and in assay [9] was over 100 µM each time.
Consider `O=C1Cc2cc3ccccc3nc2-c2ccccc2N1`, for which the TGI in assay [1], in [2], in assay [3], in assay [4], in [5] and in [6] was over 100 µM in each case. Besides, the TGI in assay [7], in assay [8] and in [9] was over 100 µM each time.
